Laboratory results reported in patent publication US20220204457A1, “ARGININE GINGIPAIN INHIBITORS” (Cortexyme, Inc., priority 2019, published 2022).

Experiments:
cathepsin V = cathepsin V (Homo sapiens, UniProt O60911); assay: cathepsin screen; type: biochemical
cathepsin H = target: T1, cathepsin H (Homo sapiens, UniProt P09668); assay: cathepsin screen; type: biochemical
T1 sequence (P09668 98-335): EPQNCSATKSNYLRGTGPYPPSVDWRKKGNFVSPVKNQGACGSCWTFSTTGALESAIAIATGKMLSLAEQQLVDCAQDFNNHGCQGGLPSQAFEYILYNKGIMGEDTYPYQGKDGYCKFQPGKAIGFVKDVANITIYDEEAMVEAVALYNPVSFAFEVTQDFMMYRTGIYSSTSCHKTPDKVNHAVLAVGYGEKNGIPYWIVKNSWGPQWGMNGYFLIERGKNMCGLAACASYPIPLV

cathepsin S = cathepsin S (Homo sapiens, UniProt P25774); assay: cathepsin screen; type: biochemical
cathepsin B = cathepsin B (Homo sapiens, UniProt P07858); assay: cathepsin screen; type: biochemical
Experimental: The method can also be used to assay enzymes including Kgp, trypsin, and cathepsins such as cathepsin B. For Kgp, the substrate can be succinyl-Ala-Phe-Lys-AMC. For trypsin, the buffer can contain 10 mM Tris and 10 mM CaCl2 (pH 8.0), and the substrate can be Z-Gly-Gly-Arg-AMC. For cathepsin B, the buffer can contain 50 mM sodium phosphate, 1 mM EDTA, and 10 mM 2-mercaptoethanol (pH 6.25), and the substrate can be Z-Arg-Arg-AMC.

cathepsin F = target: T2, cathepsin F (Homo sapiens, UniProt Q9UBX1); assay: cathepsin screen; type: biochemical
T2 sequence (Q9UBX1 271-484): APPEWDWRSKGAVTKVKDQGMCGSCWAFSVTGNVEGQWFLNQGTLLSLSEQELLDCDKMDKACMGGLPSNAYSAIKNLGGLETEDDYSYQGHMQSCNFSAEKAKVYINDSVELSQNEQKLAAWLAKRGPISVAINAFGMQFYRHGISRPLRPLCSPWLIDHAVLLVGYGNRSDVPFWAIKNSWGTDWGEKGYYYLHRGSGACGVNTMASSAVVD

cathepsin L = cathepsin L (Homo sapiens, UniProt P07711); assay: cathepsin screen; type: biochemical
cathepsin K = target: T3, cathepsin K (Homo sapiens, UniProt P43235); assay: cathepsin screen; type: biochemical
T3 sequence (P43235 115-329): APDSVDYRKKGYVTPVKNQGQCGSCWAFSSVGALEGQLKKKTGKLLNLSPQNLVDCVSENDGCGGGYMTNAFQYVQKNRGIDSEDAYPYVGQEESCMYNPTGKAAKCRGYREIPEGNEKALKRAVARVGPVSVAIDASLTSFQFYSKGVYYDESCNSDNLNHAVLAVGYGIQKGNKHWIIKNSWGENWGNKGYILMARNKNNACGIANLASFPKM

[1] = oral administration of RTV 15 minutes prior to Kyt-36; from U.S. Pat. No. 9,758,473; cited from earlier work

Chain of cathepsin L (P07711 114-333): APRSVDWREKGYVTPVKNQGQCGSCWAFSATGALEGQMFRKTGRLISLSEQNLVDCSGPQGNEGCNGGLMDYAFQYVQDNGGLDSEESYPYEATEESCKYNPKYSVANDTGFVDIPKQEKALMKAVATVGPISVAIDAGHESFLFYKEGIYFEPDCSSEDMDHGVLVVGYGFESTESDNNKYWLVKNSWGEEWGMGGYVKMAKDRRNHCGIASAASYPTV
Chain of cathepsin S (P25774 115-331): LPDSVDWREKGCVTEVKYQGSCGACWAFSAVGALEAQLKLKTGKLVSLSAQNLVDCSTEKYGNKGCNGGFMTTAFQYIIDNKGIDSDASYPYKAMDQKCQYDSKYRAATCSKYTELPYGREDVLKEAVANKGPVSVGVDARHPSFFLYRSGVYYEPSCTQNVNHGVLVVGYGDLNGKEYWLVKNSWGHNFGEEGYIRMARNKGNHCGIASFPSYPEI
Chain of cathepsin V (O60911 114-334): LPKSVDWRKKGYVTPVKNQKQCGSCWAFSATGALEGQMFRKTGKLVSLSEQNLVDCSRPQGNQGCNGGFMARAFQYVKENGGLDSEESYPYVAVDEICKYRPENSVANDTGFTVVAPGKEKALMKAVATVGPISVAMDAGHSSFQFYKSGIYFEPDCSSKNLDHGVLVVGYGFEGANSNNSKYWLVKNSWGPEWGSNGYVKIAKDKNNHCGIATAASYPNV

Compound | IC50 (cathepsin V) [µM] | IC50 (cathepsin H) [µM] | IC50 (cathepsin S) [µM] | IC50 (cathepsin B) [µM] | IC50 (cathepsin F) [µM] | IC50 (cathepsin L) [µM] | IC50 (cathepsin K) [µM] | half-life [1]
COC(C)(C)C(=O)N[C@@H](CCCNC(=N)N)C(=O)COC(C(F)(F)F)C(F)(F)F [Compound 1, (S)-N-(6-guanidino-1-((1,1,1,3,3,3-hexafluoropropan-2-yl)oxy)-2-oxohexan-3-yl)-2-methoxy-2-methylpropanamide] | > 10 | > 10 | > 10 | > 10 | > 10 | > 10 | > 10 | –
CN(NC(=O)CC[C@H](NC(=O)OCc1ccccc1)C(=O)N[C@@H](CCCCN)C(=O)C(=O)NCc1ccccc1)c1ccccc1 [Kyt-36] | – | – | – | – | – | – | – | increases the half-life
